Key:
ER reporter = ER reporter degradation; type: cell-based, human; details: 1 μM (legend, SERDs)
Method: Reporter cell lines were seeded in triplicate at a density of 1 million cells/ml in 100 μl per well in a 96 well plate and measured once. Ligand was added by Digital Dispenser (Tecan), and incubated at 37°C for the appropriate time before reading by flow cytometry. Cells were analyzed for GFP vs mCherry expression. GFP expression was normalized to mCherry signal and ligand treatments were compared to DMSO controls.

ER and UBR5 = assay: Co-immunoprecipitation of ER-GFP and UBR5 in K562; type: cell-based, human; details: K562 ER-GFP, with MG132, 16 h
Description: Blotting was done as described above.
Fulvestrant GDC-0927 Elacestrant Giredestrant Camizestrant Amcenestrant […]
log2 Ratio log2 Ratio log2 Ratio log2 Ratio log2 Ratio log2 Ratio […]
Amcenestrant Camizestrant GiredestrantBrilanestrant Fulvestrant ElacestrantAmcenestrant Camizestrant Giredestrant Brilanestrant […]
50 FulvestrantBrilanestrant
Figure S8. Non-endogenousligands recruitdifferent E3 ligases to induce ER degradation,Related to Figure 6 […]
VHL are highlighted in red. (C) Degradation (GFP/mCherry) of ER-GFP in K562 reporter cell lines treated with shRNAs targeting UBR5 and the specified SERDs or ER PROTACs. (D) Degradation (GFP/mCherry) of ER-GFP in K562 reporter cell lines treated with sgRNAs targeting RNF111 and the specified SERDs or ER PROTACs. (E) Western blots of T47D cells […]
treated with or without Brilanestrant. (G) Bioluminescence Resonance Energy Transfer (BRET) assay of ER, treated +/- fulvestrant or brilanestrant. (n=6 two sided t-test) (H) Western blots of ER co-immunoprecipitations from K562 ER-GFP reporter cells treated with brilanestrant and MG132 for 16 hours, and blotted with antibodies specific for GFP, and UBR5 as indicated. NS, not […]

ER [1] = assay: ER degradation after RNF111 or UBR5 knockdown (reporter K562; T47D western); type: cell-based, human; details: K562 ER-GFP, shUBR5 / sgRNF111, Figure S8C, D
Method: Cells were analyzed for GFP vs mCherry expression.
Protein concentration was quantified via Pierce BCA Protein Assay Kit (ThermoFisher, 23225), and equal amounts of lysates were run on either SDS-PAGE 3–8% Tris-Acetate or 4–12% Bis-Tris Protein Gels (NuPAGE, ThermoFisher), then transferred to a PVDF membrane (Biorad, Wet Transfer System). Membranes were blocked for 30 minutes to 1 hour at room temperature in Odyssey Blocking Buffer/PBS (LI-COR Biosciences), and incubated with primary antibodies at 4 °C overnight. Stained membranes were washed three times in Tris-buffered saline with Tween 20 (TBS-T) and incubated for 1 hour at room temperature with secondary IRDye-conjugated antibodies (LI-COR Biosciences). Membranes were washed three times in TBS-T before imaging (Odyssey Imaging System, LI-COR Biosciences).

[2] = system: ER reporter (E3 ligase dependence); assay: Targeted CRISPR screens, ER reporter K562 cells: E3 ligase used; type: cell-based, human; details: for E3 ligase used for ER degradation: K562 ER reporter, CRISPR screen; for E3 Ligase (Table S2): Supplemental Table S2
Method: To characterize the UPS pathway components involved in SERD-induced ER degradation, we performed CRISPR screens with our ER reporter in the presence multiple SERDs: fulvestrant, GDC-0927, elacestrant, giredestrant, camizestrant, amcenestrant, AZD-9496, brilanestrant, and LSZ-102. […] Taken together, these findings indicate that different classes of SERDs engage distinct ubiquitin ligases and degradation pathways to target ER.
The UPS and tiling CRISPR functional genomics screen was performed following previously described methods.[22] Briefly, the UPS CRISPR library targets 713 E1, E2, E3 ubiquitin ligases, and deubiquitinases and includes controls genes with a total of 2852 guide RNAs, cloned into the pXPR003 backbone. The UBR5 Tiling screen was created by CRISPR-SURF.[29] Viruses were produced in a T-175 format and ten percent by volume of the library virus was added to reporter cell lines in triplicates for transduction. Transduced cells were allowed to recover and expand for nine days, then treated with indicated ligand. Top and bottom 5% of cells by GFP signal were sorted for a total of at least 100,000 cells per replicate. Samples were processed as previously described.[22]
Reporter cell lines were treated with ATRA or 9-cis RA, and then sorted into four populations by eGFP/mCherry fluorescence ratios (Gates A-D), corresponding to the bottom and top 5–10% respectively (Figure S1D).[22],[23] Sorted cells were pelleted, lysed, and processed according to previous studies.[22] Briefly sgRNAs were amplified in two PCRs via Titanium Taq (Takara Bio 639210), Titanium Taq Buffer and 800uM dNTP mix and eight staggered forward primers. The first PCR also contained 200 nM SBS3-Stagger-pXPR003 forward primer and 200 nM SBS12-pXPR003 reverse primer (cycles: 5 minutes at 94°C, 15 × (30 sec at 94°C, 15 sec at 58°C, 30 sec at 72°C), 2 minutes at 72°C). Illumina adapters and barcodes were added in the second PCR (200 nM P5-SBS3 forward primer, 200 nM P7-barcode-SBS12 reverse primer). Samples were pooled and purified by agarose gel-electrophoresis (Qiagen) and NaOAc/isopropanol precipitation. Amplified guides were quantified by next-generation sequencing (Genomics Platform, Broad Institute), and analyzed for enrichment in Gate A over Gate D, representing degradation rescue.

ER [3] = details: cited from earlier work
Description: SERDs are a class of molecules targeting the ER for the treatment of breast cancer. […] Given that UBR5 is similarly recruited to the NR hydrophobic cleft, we hypothesized that fulvestrant and other SERDs may employ a different mechanism for ER degradation. […] One of the best understood SERDs, fulvestrant, drastically remodels the hydrophobic cleft[16],[17] in a manner incompatible with UBR5 or NCOA binding. […] Strikingly, this correlates with clinical utility, hallmarked by the wide use of fulvestrant and recent approval of elacestrant,[53] both of which employ RNF111, in contrast to UBR5 SERDs (Table S2), none of which have been approved for clinical use. The heterogeneity of ER transcriptional pro ...

ER and RNF111 [4] = assay: Co-immunoprecipitation of FLAG-RNF111 and ER-GFP in 293T; details: ± MG132
Method: (B) ER reporter degradation following 1 μM of specified SERD treatment. […] UBR5 is highlighted in blue, RNF111, CRBN, VHL are highlighted in red. (D) Western blots of T47D cells transduced with sgRNAs against RNF111 treated with or without fulvestrant. […] (NS, not significant, *p < 0.05, **p < 0.005, ***p < 0.0005, ****p < 0.00005, error bars represent SEM.)
Reporter cells (up to 100 million) were treated with ligand (ATRA, dexamethasone) and allowed to incubate for different time points. […] Lysates were incubated with GFP-Trap Magnetic Agarose beads (ChromoTek, GTMA-20) overnight at 4°C on a rotator. Beads were magnetically removed and washed three times with Pierce IP Lysis Buffer with ligand added before boiling in 1x NuPAGE LDS Sample Buffer (ThermoFischer, NP0007). […] Experiments were repeated and representative images are shown.

ER and RNF111 [5] = assay: BRET assay of RNF111 and ER; type: cell-based, human
Description: Bioluminescence resonance energy transfer (BRET) experiments were done using the NanoBRET PPI kit (Promega, N1821) according to manufacturer’s instructions.

## CC/C(=C(/c1ccc(/C=C/C(=O)O)cc1)c1ccc2[nH]ncc2c1)c1ccc(F)cc1Cl [brilanestrant]
ER reporter
  ER reporter degradation: induced ER reporter degradation
ER and UBR5
  ER and UBR5 interaction by co-immunoprecipitation: increased ER and UBR5 interactions
ER [1]
  regulated class of ER degradation (RNF111 or UBR5): UBR5 Regulated
[2]
  E3 ligase used for ER degradation: required UBR5 for degradation
  E3 Ligase (Table S2): UBR5

## C[C@]12CC[C@@H]3c4ccc(O)cc4C[C@@H](CCCCCCCCC[S+]([O-])CCCC(F)(F)C(F)(F)F)[C@H]3[C@@H]1CC[C@@H]2O (stereo partly drawn) [fulvestrant]
ER reporter
  ER reporter degradation: induced ER reporter degradation
ER [3]; ref [17], [53]
  ER degradation (literature): lead to ER degradation
ER [3]; ref [17],[55]
  ER transcriptional profile following SERD treatment: most antagonistic of tested SERDs
ER [3]; ref [54]
  effect on helix 12 and ER hydrophobic cleft: destabilize helix 12 and block the ER hydrophobic cleft, preventing coactivation
ER and RNF111 [4]
  association of RNF111 with ER by co-immunoprecipitation: induces association of RNF111 with ER
ER [1]
  regulated class of ER degradation (RNF111 or UBR5): RNF111 Regulated
[2]
  E3 ligase used for ER degradation: employed a different E3 ligase, RNF111
  E3 Ligase (Table S2): RNF111
ER and RNF111 [5]; Figure S8G, n = 6 two sided t-test
  ER-RNF111 BRET, significance (mBU): * (*p < 0.05)
ER and RNF111 [5]; n = 6
  association of RNF111 with ER by BRET: induces association of RNF111 with ER

— paper PMC11134608, “UBR5 forms ligand-dependent complexes on chromatin to regulate nuclear hormone receptor stability” (Molecular cell, 2023)
